Data published in US12568972B2, “Pyridazinol compounds and derivatives, preparation methods, herbicidal compositions and applications thereof” (Qingdao Kingagroot Chemical Compound Co., Ltd., priority 2018, dated 2026).

Legend:
Test in all cases: Post-emergence test, weed control effect
Format in all cases: in vivo
Conditions in all cases: Dose 3000 g/ha, after 3 weeks
Amaranthus retroflexus = tested on: Amaranthus retroflexus
In short: (§1)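 Greenhouse pots, soil-sown, 0.5-2 cm cover; foliar spray at 2-3 leaf stage (2-3 wk post-sowing); cpd in acetone + Tween-80, water-diluted, + 80% veg. oil methyl ester synergist 1500 g/ha; 3 wk culture; fresh-wt inhibition graded 0-10.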

Chenopodiaceae = tested on: Chenopodiaceae
In short: as §1

Rorippa indica = tested on: Rorippa indica
In short: as §1

Veronica polita = tested on: Veronica polita
In short: as §1

Cn1ncc(F)c1-c1nnc(C(F)(F)F)cc1O [Compound 804]
10: weed control effect (activity level), Amaranthus retroflexus (Amaranthus retroflexus) | weed control effect (activity level), Chenopodiaceae (Chenopodiaceae) | weed control effect (activity level), Rorippa indica (Rorippa indica) | weed control effect (activity level), Veronica polita (Veronica polita)

Cn1ncc(Cl)c1-c1nnc(C(F)(F)F)cc1O [Compound 805]
10: weed control effect (activity level), Amaranthus retroflexus (Amaranthus retroflexus) | weed control effect (activity level), Chenopodiaceae (Chenopodiaceae) | weed control effect (activity level), Rorippa indica (Rorippa indica) | weed control effect (activity level), Veronica polita (Veronica polita)

Cn1ncc(Br)c1-c1nnc(C(F)(F)F)cc1O [Compound 806]
10: weed control effect (activity level), Amaranthus retroflexus (Amaranthus retroflexus) | weed control effect (activity level), Chenopodiaceae (Chenopodiaceae) | weed control effect (activity level), Rorippa indica (Rorippa indica) | weed control effect (activity level), Veronica polita (Veronica polita)

Cn1ncc(I)c1-c1nnc(C(F)(F)F)cc1O [Compound 807]
10: weed control effect (activity level), Amaranthus retroflexus (Amaranthus retroflexus) | weed control effect (activity level), Chenopodiaceae (Chenopodiaceae) | weed control effect (activity level), Rorippa indica (Rorippa indica) | weed control effect (activity level), Veronica polita (Veronica polita)

Cc1cnn(C)c1-c1nnc(C(F)(F)F)cc1O [Compound 808]
10: weed control effect (activity level), Amaranthus retroflexus (Amaranthus retroflexus) | weed control effect (activity level), Chenopodiaceae (Chenopodiaceae) | weed control effect (activity level), Rorippa indica (Rorippa indica) | weed control effect (activity level), Veronica polita (Veronica polita)

CCc1cnn(C)c1-c1nnc(C(F)(F)F)cc1O [Compound 809]
10: weed control effect (activity level), Amaranthus retroflexus (Amaranthus retroflexus) | weed control effect (activity level), Chenopodiaceae (Chenopodiaceae) | weed control effect (activity level), Rorippa indica (Rorippa indica) | weed control effect (activity level), Veronica polita (Veronica polita)

Cn1ncc(C2CC2)c1-c1nnc(C(F)(F)F)cc1O [Compound 810]
10: weed control effect (activity level), Amaranthus retroflexus (Amaranthus retroflexus) | weed control effect (activity level), Chenopodiaceae (Chenopodiaceae) | weed control effect (activity level), Rorippa indica (Rorippa indica) | weed control effect (activity level), Veronica polita (Veronica polita)

COc1cnn(C)c1-c1nnc(C(F)(F)F)cc1O [Compound 811]
10: weed control effect (activity level), Amaranthus retroflexus (Amaranthus retroflexus) | weed control effect (activity level), Chenopodiaceae (Chenopodiaceae) | weed control effect (activity level), Rorippa indica (Rorippa indica) | weed control effect (activity level), Veronica polita (Veronica polita)

CCOc1cnn(C)c1-c1nnc(C(F)(F)F)cc1O [Compound 812]
10: weed control effect (activity level), Amaranthus retroflexus (Amaranthus retroflexus) | weed control effect (activity level), Chenopodiaceae (Chenopodiaceae) | weed control effect (activity level), Rorippa indica (Rorippa indica) | weed control effect (activity level), Veronica polita (Veronica polita)

Cn1ncc(OCc2ccccc2)c1-c1nnc(C(F)(F)F)cc1O [Compound 813]
10: weed control effect (activity level), Amaranthus retroflexus (Amaranthus retroflexus) | weed control effect (activity level), Chenopodiaceae (Chenopodiaceae) | weed control effect (activity level), Rorippa indica (Rorippa indica) | weed control effect (activity level), Veronica polita (Veronica polita)

CN(C)c1cnn(C)c1-c1nnc(C(F)(F)F)cc1O [Compound 816]
10: weed control effect (activity level), Amaranthus retroflexus (Amaranthus retroflexus) | weed control effect (activity level), Chenopodiaceae (Chenopodiaceae) | weed control effect (activity level), Rorippa indica (Rorippa indica) | weed control effect (activity level), Veronica polita (Veronica polita)

Cn1ncc(C#N)c1-c1nnc(C(F)(F)F)cc1O [Compound 820]
10: weed control effect (activity level), Amaranthus retroflexus (Amaranthus retroflexus) | weed control effect (activity level), Chenopodiaceae (Chenopodiaceae) | weed control effect (activity level), Rorippa indica (Rorippa indica) | weed control effect (activity level), Veronica polita (Veronica polita)

Cn1ncc(C(F)(F)F)c1-c1nnc(C(F)(F)F)cc1O [Compound 823]
10: weed control effect (activity level), Amaranthus retroflexus (Amaranthus retroflexus) | weed control effect (activity level), Chenopodiaceae (Chenopodiaceae) | weed control effect (activity level), Rorippa indica (Rorippa indica) | weed control effect (activity level), Veronica polita (Veronica polita)

Cn1ncc(C(F)F)c1-c1nnc(C(F)(F)F)cc1O [Compound 824]
10: weed control effect (activity level), Amaranthus retroflexus (Amaranthus retroflexus) | weed control effect (activity level), Chenopodiaceae (Chenopodiaceae) | weed control effect (activity level), Rorippa indica (Rorippa indica) | weed control effect (activity level), Veronica polita (Veronica polita)

Cn1ncc(CC(F)(F)F)c1-c1nnc(C(F)(F)F)cc1O [Compound 825]
10: weed control effect (activity level), Amaranthus retroflexus (Amaranthus retroflexus) | weed control effect (activity level), Chenopodiaceae (Chenopodiaceae) | weed control effect (activity level), Rorippa indica (Rorippa indica) | weed control effect (activity level), Veronica polita (Veronica polita)

CCn1nccc1-c1nnc(C(F)(F)F)cc1O [Compound 826]
10: weed control effect (activity level), Amaranthus retroflexus (Amaranthus retroflexus) | weed control effect (activity level), Chenopodiaceae (Chenopodiaceae) | weed control effect (activity level), Rorippa indica (Rorippa indica) | weed control effect (activity level), Veronica polita (Veronica polita)

CCn1nc(C2CC2)cc1-c1nnc(C(F)(F)F)cc1O [Compound 827]
10: weed control effect (activity level), Amaranthus retroflexus (Amaranthus retroflexus) | weed control effect (activity level), Chenopodiaceae (Chenopodiaceae) | weed control effect (activity level), Rorippa indica (Rorippa indica) | weed control effect (activity level), Veronica polita (Veronica polita)

CC(C)n1nccc1-c1nnc(C(F)(F)F)cc1O [Compound 828]
10: weed control effect (activity level), Amaranthus retroflexus (Amaranthus retroflexus) | weed control effect (activity level), Chenopodiaceae (Chenopodiaceae) | weed control effect (activity level), Rorippa indica (Rorippa indica) | weed control effect (activity level), Veronica polita (Veronica polita)

Cc1cc(-c2nnc(C(F)(F)F)cc2O)n(C(C)C)n1 [Compound 829]
10: weed control effect (activity level), Amaranthus retroflexus (Amaranthus retroflexus) | weed control effect (activity level), Chenopodiaceae (Chenopodiaceae) | weed control effect (activity level), Rorippa indica (Rorippa indica) | weed control effect (activity level), Veronica polita (Veronica polita)

CC(C)n1nc(F)cc1-c1nnc(C(F)(F)F)cc1O [Compound 830]
10: weed control effect (activity level), Amaranthus retroflexus (Amaranthus retroflexus) | weed control effect (activity level), Chenopodiaceae (Chenopodiaceae) | weed control effect (activity level), Rorippa indica (Rorippa indica) | weed control effect (activity level), Veronica polita (Veronica polita)

Oc1cc(C(F)(F)F)nnc1-c1ccnn1CC(F)(F)F [Compound 831]
10: weed control effect (activity level), Amaranthus retroflexus (Amaranthus retroflexus) | weed control effect (activity level), Chenopodiaceae (Chenopodiaceae) | weed control effect (activity level), Rorippa indica (Rorippa indica) | weed control effect (activity level), Veronica polita (Veronica polita)

Oc1cc(C(F)(F)F)nnc1-c1ccnn1-c1ccccc1 [Compound 832]
10: weed control effect (activity level), Amaranthus retroflexus (Amaranthus retroflexus) | weed control effect (activity level), Chenopodiaceae (Chenopodiaceae) | weed control effect (activity level), Rorippa indica (Rorippa indica) | weed control effect (activity level), Veronica polita (Veronica polita)

Oc1cc(C(F)(F)F)nnc1-c1ccnn1Cc1ccccc1 [Compound 833]
10: weed control effect (activity level), Amaranthus retroflexus (Amaranthus retroflexus) | weed control effect (activity level), Chenopodiaceae (Chenopodiaceae) | weed control effect (activity level), Rorippa indica (Rorippa indica) | weed control effect (activity level), Veronica polita (Veronica polita)

CC(=O)n1nccc1-c1nnc(C(F)(F)F)cc1O [Compound 834]
10: weed control effect (activity level), Amaranthus retroflexus (Amaranthus retroflexus) | weed control effect (activity level), Chenopodiaceae (Chenopodiaceae) | weed control effect (activity level), Rorippa indica (Rorippa indica) | weed control effect (activity level), Veronica polita (Veronica polita)

Cn1cc(-c2nnc(C(F)(F)F)cc2O)cn1 [Compound 839]
10: weed control effect (activity level), Amaranthus retroflexus (Amaranthus retroflexus) | weed control effect (activity level), Chenopodiaceae (Chenopodiaceae) | weed control effect (activity level), Rorippa indica (Rorippa indica) | weed control effect (activity level), Veronica polita (Veronica polita)

Cn1cncc1-c1nnc(C(F)(F)F)cc1O [Compound 857]
10: weed control effect (activity level), Amaranthus retroflexus (Amaranthus retroflexus) | weed control effect (activity level), Chenopodiaceae (Chenopodiaceae) | weed control effect (activity level), Rorippa indica (Rorippa indica) | weed control effect (activity level), Veronica polita (Veronica polita)

N#Cc1ccc(-c2nnc(C(F)(F)F)cc2O)s1 [Compound 873]
10: weed control effect (activity level), Amaranthus retroflexus (Amaranthus retroflexus) | weed control effect (activity level), Chenopodiaceae (Chenopodiaceae) | weed control effect (activity level), Rorippa indica (Rorippa indica) | weed control effect (activity level), Veronica polita (Veronica polita)

Oc1cc(C(F)(F)F)nnc1C1C=C2C=CC=CC2N1 (centres unmarked) [Compound 877]
10: weed control effect (activity level), Amaranthus retroflexus (Amaranthus retroflexus) | weed control effect (activity level), Chenopodiaceae (Chenopodiaceae) | weed control effect (activity level), Rorippa indica (Rorippa indica) | weed control effect (activity level), Veronica polita (Veronica polita)

Oc1cc(C(F)(F)F)nnc1-c1cncc(F)c1 [Compound 963]
10: weed control effect (activity level), Amaranthus retroflexus (Amaranthus retroflexus) | weed control effect (activity level), Chenopodiaceae (Chenopodiaceae) | weed control effect (activity level), Rorippa indica (Rorippa indica) | weed control effect (activity level), Veronica polita (Veronica polita)

Oc1cc(C(F)(F)F)nnc1-c1cnccc1F [Compound 964]
10: weed control effect (activity level), Amaranthus retroflexus (Amaranthus retroflexus) | weed control effect (activity level), Chenopodiaceae (Chenopodiaceae) | weed control effect (activity level), Rorippa indica (Rorippa indica) | weed control effect (activity level), Veronica polita (Veronica polita)

Oc1cc(C(F)(F)F)nnc1-c1cccnc1Br [Compound 965]
10: weed control effect (activity level), Amaranthus retroflexus (Amaranthus retroflexus) | weed control effect (activity level), Chenopodiaceae (Chenopodiaceae) | weed control effect (activity level), Rorippa indica (Rorippa indica) | weed control effect (activity level), Veronica polita (Veronica polita)

Oc1cc(C(F)(F)F)nnc1-c1ccc(Br)nc1 [Compound 966]
10: weed control effect (activity level), Amaranthus retroflexus (Amaranthus retroflexus) | weed control effect (activity level), Chenopodiaceae (Chenopodiaceae) | weed control effect (activity level), Rorippa indica (Rorippa indica) | weed control effect (activity level), Veronica polita (Veronica polita)

Oc1cc(C(F)(F)F)nnc1-c1cncc(Br)c1 [Compound 967]
10: weed control effect (activity level), Amaranthus retroflexus (Amaranthus retroflexus) | weed control effect (activity level), Chenopodiaceae (Chenopodiaceae) | weed control effect (activity level), Rorippa indica (Rorippa indica) | weed control effect (activity level), Veronica polita (Veronica polita)

Oc1cc(C(F)(F)F)nnc1-c1cnccc1Br [Compound 968]
10: weed control effect (activity level), Amaranthus retroflexus (Amaranthus retroflexus) | weed control effect (activity level), Chenopodiaceae (Chenopodiaceae) | weed control effect (activity level), Rorippa indica (Rorippa indica) | weed control effect (activity level), Veronica polita (Veronica polita)

Oc1cc(C(F)(F)F)nnc1-c1cccnc1I [Compound 969]
10: weed control effect (activity level), Amaranthus retroflexus (Amaranthus retroflexus) | weed control effect (activity level), Chenopodiaceae (Chenopodiaceae) | weed control effect (activity level), Rorippa indica (Rorippa indica) | weed control effect (activity level), Veronica polita (Veronica polita)

Oc1cc(C(F)(F)F)nnc1-c1ccc(I)nc1 [Compound 970]
10: weed control effect (activity level), Amaranthus retroflexus (Amaranthus retroflexus) | weed control effect (activity level), Chenopodiaceae (Chenopodiaceae) | weed control effect (activity level), Rorippa indica (Rorippa indica) | weed control effect (activity level), Veronica polita (Veronica polita)

Oc1cc(C(F)(F)F)nnc1-c1cncc(I)c1 [Compound 971]
10: weed control effect (activity level), Amaranthus retroflexus (Amaranthus retroflexus) | weed control effect (activity level), Chenopodiaceae (Chenopodiaceae) | weed control effect (activity level), Rorippa indica (Rorippa indica) | weed control effect (activity level), Veronica polita (Veronica polita)

Oc1cc(C(F)(F)F)nnc1-c1cnccc1I [Compound 972]
10: weed control effect (activity level), Amaranthus retroflexus (Amaranthus retroflexus) | weed control effect (activity level), Chenopodiaceae (Chenopodiaceae) | weed control effect (activity level), Rorippa indica (Rorippa indica) | weed control effect (activity level), Veronica polita (Veronica polita)
